# Data published in publication PMC7179907, “Novel AXL-specific inhibitor ameliorates kidney dysfunction through the inhibition of epithelial-to-mesenchymal transition of renal tubular cells” (PLoS ONE, 2020).
# Experiments:
# AXL = target: T1, AXL (Homo sapiens, UniProt P30530); experiment: Protein kinase assay, AXL; format: biochemical; settings: recombinant AXL, 1.5 hours treatment, n = 2; read-out: IC50 against AXL kinase activity
# T1 construct: purchased Carna Biosciences (Kobe, Japan)
# T1 sequence (P30530 26-894): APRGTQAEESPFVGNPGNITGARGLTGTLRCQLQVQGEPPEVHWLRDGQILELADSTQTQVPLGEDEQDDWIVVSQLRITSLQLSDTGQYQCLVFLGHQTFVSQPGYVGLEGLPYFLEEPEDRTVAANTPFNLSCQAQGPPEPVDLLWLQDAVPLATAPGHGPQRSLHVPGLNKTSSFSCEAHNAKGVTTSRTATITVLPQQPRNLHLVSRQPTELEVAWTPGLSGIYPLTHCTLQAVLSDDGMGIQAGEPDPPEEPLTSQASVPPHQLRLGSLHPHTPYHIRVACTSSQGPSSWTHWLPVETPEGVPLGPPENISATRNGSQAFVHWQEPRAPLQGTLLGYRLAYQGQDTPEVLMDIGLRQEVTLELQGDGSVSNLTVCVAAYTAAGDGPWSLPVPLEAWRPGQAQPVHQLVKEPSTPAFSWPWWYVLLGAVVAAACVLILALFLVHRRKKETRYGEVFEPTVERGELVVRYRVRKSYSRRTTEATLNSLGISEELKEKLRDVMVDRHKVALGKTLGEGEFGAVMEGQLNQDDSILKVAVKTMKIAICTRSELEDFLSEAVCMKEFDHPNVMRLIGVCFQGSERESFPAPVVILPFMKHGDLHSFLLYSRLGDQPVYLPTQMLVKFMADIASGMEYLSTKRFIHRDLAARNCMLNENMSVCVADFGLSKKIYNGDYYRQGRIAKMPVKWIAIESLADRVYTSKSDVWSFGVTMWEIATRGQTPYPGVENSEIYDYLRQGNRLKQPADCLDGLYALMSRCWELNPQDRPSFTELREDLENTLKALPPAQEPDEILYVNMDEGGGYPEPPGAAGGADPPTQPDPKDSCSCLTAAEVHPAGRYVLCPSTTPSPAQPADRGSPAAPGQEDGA
# From the text: (§1) CH5451098 (N-cyclopropyl-2-[2-[8-[(2R)-2,3-dihydroxypropoxy]-6,6-dimethyl-11-oxo-naphtho[2,3-b]benzofuran-3-yl]ethynyl]pyridine-4-carboxamide), a selective inhibitor of AXL, was synthesized at Chugai Pharmaceutical Co. Ltd. (Fig 1). The following recombinant proteins were used for the kinase assay: AXL, Mer, Tyro3, Flt3, JAK2, EGFR, HER2, KIT, PDGFRβ, FGFR2, KDR, MET, ALK, EPHA2, EPHB2, FAK, SRC, ABL, ERK1, PKA, AKT1, PKACα, PKACβ1, AurA, CHK1, CHK2, MNK1, CDK1, and p38α from Carna Biosciences (Kobe, Japan), and Raf1 from Thermo Fisher Scientific (Waltham, MA). Recombinant mouse TGFβ1 (mTGFβ1) and recombinant mouse Gas6 (mGas6) were purchased from R&D systems. All other chemicals were of the highest purity available. The following primary antibodies were used for this study: anti-beta catenin (8480), anti-zinc finger E-box-binding homeobox 1 (Zeb1) (3396), anti-glyceraldehyde-3-phosphate dehydrogenase (GAPDH) (8884) antibody from Cell Signaling Technology (Danvers, MA). […]
# (§2) Protein kinases were purchased from Carna Biosciences or Millipore. The inhibitory activity against each kinase was evaluated as described previously.
# (§3) Fig 2 In vitro kinase inhibitory activity of CH5451098. […] Enzyme inhibitory activity was calculated by the formula (1-T/C) x 100 (%), where T represents the measured value of the wells with a compound and C represents that of wells without a compound (n = 2). […]
# [1] = tested on: 30 kinases including the TAM family (Tyro3, AXL and, Mer) of receptor tyrosine kinases; experiment: 30 kinase inhibitory assays (selectivity); format: biochemical; settings: Fig 2B
# From the text: as §1, §2, §3
# NEP25 mice = experiment: NEP25 mouse model of glomerular nephritis (LMB2-induced); format: in vivo
# Method: NEP25 mice, heterozygous podocyte-specific hCD25 transgenic mice, were bred in Tokai University and kindly provided by Matsusaka et al.. All mice were kept in well-controlled animal housing with free access to water and pellet food. Animal procedures and protocols were in accordance with the Guidelines for the Care and Use of Laboratory Animals at Chugai Pharmaceutical Co. Ltd. and approved by the Institutional Animal Care and Use Committee.
# To induce disease, NEP25 mice were injected with 0.8 μg/kg of the immunotoxin LMB2 (provided from National Institutes of Health, USA) via the tail vein, except in the normal control group (n = 4). CH5451098 powder was suspended in a 0.5% carboxymethyl cellulose solution to prepare 1.0 mg/mL. Mice were divided into 2 groups and were orally administered vehicle (disease group, n = 10) or CH5451098 10 mg/kg once daily for 21 days (CH5451098 group, n = 10) from one day before LMB2 injection. The dose of CH5451098 was set high enough to inhibit AXL kinase activity throughout the day. Mice not treated with LMB2 were used as normal control.
# Blood and urine samples were collected on day 7, 14, or, 21 after LMB2 injection. Blood samples were collected from the abdominal portion of the vena cava under isoflurane anesthesia and were centrifuged to obtain serum samples. Urine samples were collected for 24 hours using a metabolic cage. The mice were euthanized by exsanguination under isoflurane anesthesia at day 22 after LMB2 injection. Kidney tissues were dissected for pathology (formalin-fixed or methyl carnoy-fixed) and kidney cortex samples were collected and snap frozen in liquid nitrogen.
# Serum urea nitrogen (BUN), creatinine (sCre) and urinary albumin (uAlb), N-Acetyl-beta-D Glucosaminidase (NAG), and creatinine were measured using an automatic analyzer (Hitachi 7100 Autoanlayzer, Hitachi Co., Ltd. Tokyo, Japan).
# RNA samples were extracted from frozen mouse kidney cortex or NRK-52E cells using an RNaesy Mini kit (QIAGEN, Hilden, Germany). cDNA were synthesized from RNA using a reverse transcription kit (Roche applied science, Penzberg, Germany). Expression levels were measured by a LightCycler 480 (Roche Applied science) using TaqMan probe/primer sets for each gene (Thermo Fisher Scientific). […]
# NRK-52E cells = experiment: EMT induced by TGFβ1 and Gas6 in NRK-52E cells (mRNA expression); format: cell-based, rat; settings: CH5451098 1 nmol/L; mTGFβ1 2 ng/mL and mGas6 500 ng/mL; 2 hours
# Method: RNA samples were extracted from frozen mouse kidney cortex or NRK-52E cells using an RNaesy Mini kit (QIAGEN, Hilden, Germany). cDNA were synthesized from RNA using a reverse transcription kit (Roche applied science, Penzberg, Germany). Expression levels were measured by a LightCycler 480 (Roche Applied science) using TaqMan probe/primer sets for each gene (Thermo Fisher Scientific).
# NRK-52E cell line derived from rat renal tubular epithelial cells was purchased from ATCC (Manassas, VA) and cultured in Dulbecco’s modified eagle’s medium with high glucose media supplemented with 5% FBS at 37°C under 5% CO 2 and 95% air.
# NRK-52E cells were seeded onto a collagen-coated plate and were cultured over-night. After reaching subconfluence, cells were cultured in serum restricted medium (0.5% FBS) for 6 hours. Then the cells were stimulated with recombinant mTGFβ1 (2 ng/mL) and/or recombinant mGas6 (500 ng/mL) followed by treatment with or without CH5451098 (1 nmol/L) for 15 minutes. The cells were lysed with RLT buffer (Qiagen) after 2 hours incubation with stimulants and mRNA was purified using RNeasy mini kit (Qiagen).
# [2] = 10 mg/kg once daily 21 days, kidney cortex, vs disease control
# [3] = 10 mg/kg once daily 21 days, vs disease control
# [4] = 10 mg/kg orally once daily 21 days, blood 24 hours after final administration, mean ± SE, p<0.01 vs disease control
# [5] = kidney cortex, 3 weeks after disease induction, vs disease control
smiles,measurement,setting,value
"CC1(C)c2cc(OC[C@H](O)CO)ccc2C(=O)c2c1oc1cc(C#Cc3cc(C(=O)NC4CC4)ccn3)ccc21 [CH5451098, N-cyclopropyl-2-[2-[8-[(2R)-2,3-dihydroxypropoxy]-6,6-dimethyl-11-oxo-naphtho[2,3-b]benzofuran-3-yl]ethynyl]pyridine-4-carboxamide]",IC50,AXL,3.8 nM
same,selectivity against other kinases,[1],strongest inhibitory activity towards AXL among 30 kinases
same,uAlb excretion,"NEP25 mice; 10 mg/kg once daily 21 days, 3 weeks after disease induction, vs disease control",significantly decreased
same,Renal LCN2 mRNA,NEP25 mice; [2],significantly decreased
same,kidney Col1a1 mRNA,NEP25 mice; [2],significantly reduced
same,kidney OH-Pro content,NEP25 mice; [2],suppressed
same,kidney Pai1 mRNA,NEP25 mice; [2],significantly inhibited
same,kidney Snai1 mRNA,NEP25 mice; [2],did not reduce
same,kidney TGFβ1 mRNA expression,NEP25 mice; [2],only a partial reduction
same,kidney Twist1 mRNA,NEP25 mice; [2],tended to suppress
same,kidney Zeb1 mRNA,NEP25 mice; [2],suppressed
same,Urinary NAG excretion,"NEP25 mice; 10 mg/kg once daily 21 days, urine 0 to 24 hours after final administration, vs disease control",significantly inhibited
same,abundance of stained connective tissue (Sirius red and Masson's Trichrome staining),NEP25 mice; [3],inhibited
same,destruction of glomerular structure (periodic acid-Schiff stain),NEP25 mice; [3],ameliorated
same,"tubulointerstitial fibrosis (semi-quantitative score, Masson's trichrome)",NEP25 mice; [3],significantly suppressed
same,BUN,NEP25 mice; [4],55 ± 5.0 mg/dL
same,Serum creatinine (sCre),NEP25 mice; [4],0.15 ± 0.019 mg/dL
same,uAlb leakage,"NEP25 mice; 2 weeks after disease induction, compared to DC group, data not shown",no effect
same,kidney Zeb1 protein level (western blotting),NEP25 mice; [5],reduced
same,kidney beta-catenin protein level (western blotting),NEP25 mice; [5],reduced
same,LCN2 mRNA induced by Gas6 and TGFβ1,NRK-52E cells,inhibited
same,Snai1 mRNA induced by Gas6 along with TGFβ1,NRK-52E cells,markedly inhibited
same,Twist1 mRNA induced by Gas6 along with TGFβ1,NRK-52E cells,markedly inhibited
same,Zeb1 mRNA induced by Gas6 along with TGFβ1,NRK-52E cells,markedly inhibited
same,enhancement of Pai1 mRNA,NRK-52E cells,suppressed
same,enhancement of TGFβ1 mRNA,NRK-52E cells,suppressed
